The text below walks through data of publication PMC5065788 (Bioorganic & medicinal chemistry, 2016).

The target of experiment [1] is T1, recombinant human aromatase (CYP19) (Homo sapiens, UniProt P11511).
T1 sequence (P11511 1-503): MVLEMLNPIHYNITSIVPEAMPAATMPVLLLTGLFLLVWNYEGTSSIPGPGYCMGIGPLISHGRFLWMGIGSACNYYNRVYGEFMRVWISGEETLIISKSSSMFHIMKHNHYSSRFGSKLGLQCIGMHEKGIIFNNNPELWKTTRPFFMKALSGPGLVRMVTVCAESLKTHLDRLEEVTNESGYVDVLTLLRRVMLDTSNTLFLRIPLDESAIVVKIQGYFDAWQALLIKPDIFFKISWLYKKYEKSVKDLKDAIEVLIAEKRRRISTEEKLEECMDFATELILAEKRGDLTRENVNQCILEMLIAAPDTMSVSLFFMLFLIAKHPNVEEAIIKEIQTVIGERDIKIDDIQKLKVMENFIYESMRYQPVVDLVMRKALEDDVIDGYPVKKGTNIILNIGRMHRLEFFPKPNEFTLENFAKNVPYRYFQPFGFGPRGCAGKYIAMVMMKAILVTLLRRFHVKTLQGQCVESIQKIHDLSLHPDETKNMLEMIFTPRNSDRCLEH
Briefly: Inhibition of recombinant human aromatase. The settings on record: ratio of IC50 values vs 13 (24880 nM). The format is biochemical.

Experiment [2] concerns the target T2, recombinant human ER-α (Homo sapiens, UniProt P03372).
T2 sequence (P03372 1-595): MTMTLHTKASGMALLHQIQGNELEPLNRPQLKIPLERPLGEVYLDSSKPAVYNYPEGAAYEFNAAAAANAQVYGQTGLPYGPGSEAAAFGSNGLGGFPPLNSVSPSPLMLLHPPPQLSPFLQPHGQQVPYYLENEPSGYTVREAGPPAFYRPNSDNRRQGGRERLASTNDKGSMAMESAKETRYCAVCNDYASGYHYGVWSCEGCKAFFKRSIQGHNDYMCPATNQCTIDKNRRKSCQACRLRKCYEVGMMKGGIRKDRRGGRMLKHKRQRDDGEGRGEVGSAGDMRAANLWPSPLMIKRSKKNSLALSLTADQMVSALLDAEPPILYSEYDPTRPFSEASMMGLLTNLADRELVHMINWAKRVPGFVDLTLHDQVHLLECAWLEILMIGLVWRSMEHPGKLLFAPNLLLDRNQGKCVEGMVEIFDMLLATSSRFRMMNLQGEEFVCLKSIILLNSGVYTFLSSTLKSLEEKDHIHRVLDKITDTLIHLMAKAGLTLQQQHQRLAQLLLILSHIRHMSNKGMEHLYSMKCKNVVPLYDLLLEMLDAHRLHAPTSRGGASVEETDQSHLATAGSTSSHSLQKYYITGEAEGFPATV
The conditions noted are these: at 100 μM; previously reported compounds included for comparison; cited from earlier work.

The target in experiment [3] is T2, recombinant human ER-α. Briefly: Binding affinity for recombinant human ER-α. The conditions noted are these: at 100 μM (100000 nM).
For experiment [4], the target named is T3, recombinant human ER-β (Homo sapiens, UniProt Q92731). The experiment can be described thus: Binding affinity for recombinant human ER-β. The conditions noted are these: at 100 μM (100000 nM).
Experiment [5] relates to progesterone receptor (PGR) mRNA expression in MCF-7 cells. Briefly: Antagonism of β-estradiol-stimulated progesterone receptor. The settings on record: 1 μM compound in the presence of 10 nM β-estradiol, 24 hours. It counts as cell-based, human.
Experiment [6] deals with T3, recombinant human ER-β. The settings on record: at 100 μM; previously reported compounds included for comparison; cited from earlier work.

Molecules are shown by their SMILES. Like-named read-outs stand apart in the source and are kept apart here.

T3 sequence (Q92731 whole entry): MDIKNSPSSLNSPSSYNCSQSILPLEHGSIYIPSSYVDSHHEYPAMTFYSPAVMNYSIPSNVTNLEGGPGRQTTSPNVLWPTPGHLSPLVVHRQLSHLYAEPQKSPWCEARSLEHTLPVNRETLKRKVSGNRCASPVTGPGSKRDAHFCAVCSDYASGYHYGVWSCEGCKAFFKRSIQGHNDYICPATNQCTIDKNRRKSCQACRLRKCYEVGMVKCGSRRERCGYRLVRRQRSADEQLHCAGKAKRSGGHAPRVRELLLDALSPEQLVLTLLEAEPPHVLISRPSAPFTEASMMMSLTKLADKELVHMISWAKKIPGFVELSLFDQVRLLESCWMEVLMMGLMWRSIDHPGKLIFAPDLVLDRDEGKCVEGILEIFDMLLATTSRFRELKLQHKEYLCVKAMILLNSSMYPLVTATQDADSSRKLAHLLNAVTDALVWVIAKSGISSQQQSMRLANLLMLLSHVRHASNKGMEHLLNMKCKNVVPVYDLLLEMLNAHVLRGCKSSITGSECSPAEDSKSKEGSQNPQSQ

For the compound `CC(=C(c1ccc(N)cc1)c1ccc(N)cc1)c1ccc([N+](=O)[O-])cc1` [Compound 12c, 4-(1-(4-Aminophenyl)-2-(4-nitrophenyl)prop-1-enyl)benzenamine], in experiment [1], the “times more potent than 13 against aromatase” value is 113 times.
Still for that read-out and setting: the result for `CCC(=C(c1ccc(N)cc1)c1ccc(N)cc1)c1ccc([N+](=O)[O-])cc1` [Compound 12d, 4-(1-(4-Aminophenyl)-2-(4-nitrophenyl)but-1-enyl)benzenamine] reads 400 times.
As to `CCC(=C(c1ccc(O)cc1)c1ccc(O)cc1)c1ccccc1` [Compound 13, 4-(1-(4-Hydroxyphenyl)-2-phenylbut-1-enyl)phenol], the ER-α percent competition on recombinant human ER-α [2] is reported as 80% competition at 100 μM.
In the case of `CC(=C(c1ccc(O)cc1)c1ccc(OCC(N)=O)cc1)c1ccc([N+](=O)[O-])cc1` [Compound 16a, (E,Z)-2-(4-(1-(4-Hydroxyphenyl)-2-(4-nitrophenyl)prop-1-enyl)phenoxy)-acetamide], the ER-α percent competition on recombinant human ER-α [3] was 0% competition at 100 μM. On recombinant human ER-β [4], the ER-β percent competition was found to be 0% competition at 100 μM.
`CCC(=C(c1ccc(O)cc1)c1ccc(OCC(N)=O)cc1)c1ccc([N+](=O)[O-])cc1` [Compound 16b, (E,Z)-2-(4-(1-(4-Hydroxyphenyl)-2-(4-nitrophenyl)but-1-enyl)phenoxy)-acetamide]: the ER-α percent competition at recombinant human ER-α [3] turned out to be 0% competition at 100 μM. Further, the ER-β percent competition on recombinant human ER-β [4] is 0% competition at 100 μM.
For `CCC(=C(c1ccc(N)cc1)c1ccc(NCC(N)=O)cc1)c1ccc([N+](=O)[O-])cc1` [Compound 16d, (E,Z)-2-(4-(1-(4-Aminophenyl)-2-(4-nitrophenyl)but-1-enyl)phenylamino)acetamide], the “PGR mRNA expression level relative to estradiol (100%)” value in experiment [5] was 19.6%.
As to `CC/C(=C(/c1ccc(O)cc1)c1ccc(OCC(N)=O)cc1)c1ccccc1` [Compound 17, (E,Z)-2-(4-(1-(4-Hydroxyphenyl)-2-phenylbut-1-enyl)phenoxy)-acetamide], at recombinant human ER-α [2], the ER-α percent competition is 57% competition at 100 μM. For the same compound, the ER-β percent competition on recombinant human ER-β [6] is 71% competition at 100 μM.
